The values below come from article PMC8209656 (The Journal of endocrinology, 2010).

Holding throughout (experiment): ethoxyresorufin-O-deethylase fluorescence, recombinant membranes
Holding throughout (format): biochemical
Settings in all cases: 30 °C; human CPR co-expressed

In experiment [1] the target is T1, CYP1C2 (Danio rerio, UniProt A0AC58HLV5).
T1 sequence (A0AC58HLV5 1-514): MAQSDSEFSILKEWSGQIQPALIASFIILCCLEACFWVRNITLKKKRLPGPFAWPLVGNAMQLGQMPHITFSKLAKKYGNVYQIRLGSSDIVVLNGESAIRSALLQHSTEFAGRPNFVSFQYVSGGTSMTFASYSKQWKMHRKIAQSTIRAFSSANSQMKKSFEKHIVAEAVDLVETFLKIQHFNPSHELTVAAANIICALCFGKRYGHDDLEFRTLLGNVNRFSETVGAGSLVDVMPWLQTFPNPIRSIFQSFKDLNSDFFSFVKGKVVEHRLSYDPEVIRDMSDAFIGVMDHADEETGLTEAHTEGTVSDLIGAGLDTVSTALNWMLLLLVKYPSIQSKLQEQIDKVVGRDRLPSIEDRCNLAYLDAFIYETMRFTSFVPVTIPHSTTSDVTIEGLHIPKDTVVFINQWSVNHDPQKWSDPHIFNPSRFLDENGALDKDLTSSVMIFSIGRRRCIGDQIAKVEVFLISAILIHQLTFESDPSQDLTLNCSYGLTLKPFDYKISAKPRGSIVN

Experiment [2] has as its target T2, CYP1B1 (Danio rerio, UniProt Q1JQ70).
T2 sequence (Q1JQ70 1-526): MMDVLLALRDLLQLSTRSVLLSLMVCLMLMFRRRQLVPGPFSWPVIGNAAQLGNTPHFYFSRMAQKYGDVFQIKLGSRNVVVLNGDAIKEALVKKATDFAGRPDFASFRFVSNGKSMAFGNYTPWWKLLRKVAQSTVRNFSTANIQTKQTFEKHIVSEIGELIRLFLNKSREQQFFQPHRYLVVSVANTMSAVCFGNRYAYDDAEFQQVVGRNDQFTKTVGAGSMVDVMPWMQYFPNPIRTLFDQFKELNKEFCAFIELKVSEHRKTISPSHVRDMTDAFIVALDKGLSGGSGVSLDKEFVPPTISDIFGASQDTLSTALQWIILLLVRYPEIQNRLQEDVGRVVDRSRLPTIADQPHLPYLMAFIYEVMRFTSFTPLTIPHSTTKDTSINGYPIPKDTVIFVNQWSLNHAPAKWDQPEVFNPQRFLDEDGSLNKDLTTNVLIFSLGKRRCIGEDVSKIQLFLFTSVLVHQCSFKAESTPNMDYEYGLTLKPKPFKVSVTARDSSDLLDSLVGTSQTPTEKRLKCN

Experiment [3] has as its target T3, CYP1C1 (Danio rerio, UniProt A0A8M1N631).
T3 sequence (A0A8M1N631 13-523): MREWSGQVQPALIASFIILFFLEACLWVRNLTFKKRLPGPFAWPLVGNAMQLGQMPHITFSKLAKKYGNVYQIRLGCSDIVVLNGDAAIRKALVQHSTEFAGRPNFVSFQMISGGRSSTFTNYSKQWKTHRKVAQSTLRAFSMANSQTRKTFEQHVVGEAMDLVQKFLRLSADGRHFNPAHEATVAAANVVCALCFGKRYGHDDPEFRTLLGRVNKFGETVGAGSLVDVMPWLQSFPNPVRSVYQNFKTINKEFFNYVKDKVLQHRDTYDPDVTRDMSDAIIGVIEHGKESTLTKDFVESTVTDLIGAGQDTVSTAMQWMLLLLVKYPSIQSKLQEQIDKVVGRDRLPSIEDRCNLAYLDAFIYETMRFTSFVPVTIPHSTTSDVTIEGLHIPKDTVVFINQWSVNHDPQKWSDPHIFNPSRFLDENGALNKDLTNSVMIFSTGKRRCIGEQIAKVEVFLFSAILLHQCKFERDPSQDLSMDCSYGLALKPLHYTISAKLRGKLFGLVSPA

Take `CCOc1ccc2nc3ccc(=O)cc-3oc2c1` [7-ethoxyresorufin]: the “ethoxyresorufin-O-deethylase fluorescence, recombinant membranes” value in experiment [1] is “All CYP1s showed catalytic activity for 7-ER and BFC except for CYP1D1 and CYP3A65”; in experiment [2], “All CYP1s showed catalytic activity for 7-ER and BFC except for CYP1D1 and CYP3A65”; in experiment [3] it was “All CYP1s showed catalytic activity for 7-ER and BFC except for CYP1D1 and CYP3A65”.
